Assay results as given in US20230265151A1, “GIP/GLP1 CO-AGONIST COMPOUNDS” (priority 2020, published 2023).
Where two headings read alike, the source gives them in different places.

What was measured:
[1] = biological target: T1, human GIP receptor (hGIPR) (Homo sapiens, UniProt P48546); test: [125I]-GIP binding, SPA with membranes of CHO cells expressing hGIPR; conditions: human GIPR; geometric mean (SEM, n); read-out: Binding Affinity Ki, nM (SEM, n) hGIPR
T1 construct: expressed in transfected cells; crude membranes
T1 sequence (P48546 22-466): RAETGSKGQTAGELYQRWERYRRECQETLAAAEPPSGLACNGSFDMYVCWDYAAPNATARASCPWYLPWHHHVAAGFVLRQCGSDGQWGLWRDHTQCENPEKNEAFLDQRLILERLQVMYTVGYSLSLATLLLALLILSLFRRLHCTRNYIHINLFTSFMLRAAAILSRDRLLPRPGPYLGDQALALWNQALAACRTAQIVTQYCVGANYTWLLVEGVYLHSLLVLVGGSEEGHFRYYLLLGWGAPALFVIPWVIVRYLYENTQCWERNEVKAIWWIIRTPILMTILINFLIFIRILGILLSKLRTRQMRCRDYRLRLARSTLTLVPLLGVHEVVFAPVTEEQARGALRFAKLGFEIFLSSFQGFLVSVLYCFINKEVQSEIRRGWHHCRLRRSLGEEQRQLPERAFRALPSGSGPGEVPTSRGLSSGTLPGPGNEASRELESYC
Procedure: Two methods are used for the preparation of crude cell membranes.
Method 1: Frozen cell pellets are lysed on ice in hypotonic buffer containing 50 mM Tris HCl, pH 7.5, and Roche Complete™ Protease Inhibitors with EDTA. […] The homogenate is centrifuged at 4° C. at 1100 × g for 10 minutes. The supernatant is collected and stored on ice while the pellets are resuspended in homogenization buffer and rehomogenized as described above. The homogenate is centrifuged at 1100 × g for 10 minutes. The second supernatant is combined with the first supernatant and centrifuged at 35000 × g for 1 hour at 4° C. The resulting membrane pellet is resuspended in homogenization buffer containing protease inhibitors at approximately 1 to 3 mg/mL, quick frozen in liquid nitrogen and stored as aliquots in a -80° C. freezer until use.
The homogenate is centrifuged at 4° C. at 1800 × g for 15 minutes. The supernatant is collected and stored on ice while the pellets are resuspended in homogenization buffer (without DNAse I) and rehomogenized as described above. The homogenate is centrifuged at 1800 × g for 15 minutes. The second supernatant is combined with the first supernatant and centrifuged an additional time at 1800 × g for 15 minutes. The overall supernatant is then centrifuged at 25000 × g for 30 minutes at 4° C. The resulting membrane pellet is resuspended in homogenization buffer (without DNAse I) containing protease inhibitors at approximately 1 to 3 mg/mL and stored as aliquots in a -80° C. freezer until use.
The binding buffer contains 25 mM HEPES, pH 7.4, 2.5 mM CaCl2, 1 mM MgCl2, 0.1% (w/v) bacitracin, 0.003% (w/v) TWEEN®-20, and Roche Complete™ Protease Inhibitors without EDTA. Peptides and GIP are thawed and 3 fold serially diluted in 100% DMSO (10 point concentration response curves). […] Plates are sealed and mixed on a plate shaker (setting 6) for 1 minute and read with a PerkinElmer Trilux MicroBeta® scintillation counter after 2.5 to 12 hours of incubation/settling time at room temperature.
Raw CPM data for concentration curves of peptides, Gcg, GLP-1, or GIP are converted to percent inhibition by subtracting nonspecific binding (binding in the presence of excess unlabeled Gcg, GLP-1, or GIP, respectively) from the individual CPM values and dividing by the total binding signal, also corrected by subtracting nonspecific binding. Data are analyzed using four-parameter (curve maximum, curve minimum, IC50, Hill slope) nonlinear regression routines (Genedata Screener, version 12.0.4, Genedata AG, Basal, Switzerland). […] Values for Ki are reported as the geometric mean, with error expressed as the standard error of the mean (SEM) and n is equal to the number of independent replicates (determined in assays performed on different days). Geometric Means are calculated as follows: […]
The Ki Ratio (Ki for native control peptide/Ki for test compound) at each receptor and each species is calculated. The Ki Ratio is a rapid indication of the apparent affinity of a peptide compared to the native control peptide.
n=⅟x means that only one value out of the total number of replicates (x) is used to express the mean. SEM is only calculated when n=2 or greater non-qualified results exist. Means are expressed as GeoMetric means with the standard error of the mean (SEM) and the number of replicates (n) indicated in parenthesis.

hGIPR = biological target: T2, hGIPR (Homo sapiens, UniProt P48546); test: Functional cAMP formation (HTRF) in HEK-293 clonal cells expressing hGIPR, 0.1% bovine casein, without or with 1.0% human serum albumin; assay type: cell-based; conditions: 37° C.; for Emax: HEK293, cAMP, percent of maximal response to GIP(1-42)NH2, read-out: hGIPR Emax, % ± SEM; for EC50: cAMP, read-out: hGIPR EC50, nM (SEM, n)
T2 construct: expressed in transfected cells
T2 sequence (P48546 22-466): T1 sequence (P48546 22-466)
How it was run: (§1)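 Cells were stimulated with peptide for 30 min at 37° C, then intracellular cAMP was measured by competitive HTRF (665/620 nm ratio) and converted to nM using a cAMP standard curve. Relative EC50 and Emax came from four-parameter logistic fits of percent maximal response against peptide concentration.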

hGCGR = biological target: T3, hGCGR (Homo sapiens, UniProt P47871); test: Functional cAMP formation (HTRF) in HEK-293 clonal cells expressing hGCGR, 0.1% bovine casein, without or with 1.0% human serum albumin; assay type: cell-based; conditions: cAMP, 37° C., read-out: hGCGR EC50, nM (SEM, n)
T3 construct: expressed in transfected cells
T3 sequence (P47871 26-477): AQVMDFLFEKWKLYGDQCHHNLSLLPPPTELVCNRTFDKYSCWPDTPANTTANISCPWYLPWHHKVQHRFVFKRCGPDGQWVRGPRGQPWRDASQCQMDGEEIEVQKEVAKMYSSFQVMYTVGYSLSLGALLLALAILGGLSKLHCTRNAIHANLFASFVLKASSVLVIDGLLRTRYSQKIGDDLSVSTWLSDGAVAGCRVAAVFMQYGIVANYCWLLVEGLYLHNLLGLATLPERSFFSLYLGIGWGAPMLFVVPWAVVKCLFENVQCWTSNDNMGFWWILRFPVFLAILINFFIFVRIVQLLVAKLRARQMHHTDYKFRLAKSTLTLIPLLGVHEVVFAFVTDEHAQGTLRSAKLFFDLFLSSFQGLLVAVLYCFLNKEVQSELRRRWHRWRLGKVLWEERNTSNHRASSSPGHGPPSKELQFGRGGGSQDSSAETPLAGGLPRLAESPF
How it was run: as §1

hGLP-1R = hGLP-1R (Homo sapiens, UniProt P43220); test: Functional cAMP formation (HTRF) in HEK-293 clonal cells expressing hGLP-1R, 0.1% bovine casein, without or with 1.0% human serum albumin; assay type: cell-based; design: expressed in transfected cells; conditions: 37° C.; for EC50: cAMP, read-out: hGLP-1R EC50, nM (SEM, n); for Emax: HEK293, cAMP, percent of maximal response to GLP-1(7-36)NH2, read-out: hGLP-1R Emax, % ± SEM
hGLP-1R, sequence (P43220 24-463): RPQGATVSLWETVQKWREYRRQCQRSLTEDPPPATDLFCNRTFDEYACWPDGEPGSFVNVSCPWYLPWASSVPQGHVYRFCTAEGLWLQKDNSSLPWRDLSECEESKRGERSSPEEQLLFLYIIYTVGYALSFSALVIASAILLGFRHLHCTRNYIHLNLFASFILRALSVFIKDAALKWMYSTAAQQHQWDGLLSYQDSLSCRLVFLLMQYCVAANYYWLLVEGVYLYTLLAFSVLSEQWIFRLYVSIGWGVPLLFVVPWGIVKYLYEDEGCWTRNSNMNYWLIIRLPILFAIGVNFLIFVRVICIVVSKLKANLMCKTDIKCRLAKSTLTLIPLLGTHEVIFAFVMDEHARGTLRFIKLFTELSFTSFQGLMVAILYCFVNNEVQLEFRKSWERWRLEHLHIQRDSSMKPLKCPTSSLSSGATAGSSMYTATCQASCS
How it was run: as §1

[2] = 0.1% bovine casein, arithmetic mean
[3] = 0.1% bovine casein (no human serum albumin), geometric mean
[4] = 0.1% bovine casein and 1.0% human serum albumin, geometric mean (SEM, n)
[5] = 0.1% bovine casein and 1.0% human serum albumin

Structure (SMILES) | Ki [1] [nM] | Emax (hGIPR; [2]) [%] | EC50 (hGIPR; [3]) [nM] | EC50 (hGIPR; [4]) [nM] | EC50 (hGCGR; [3]) [nM] | EC50 (hGCGR; [4]) [nM] | EC50 (hGLP-1R; [3]) [nM] | Emax (hGIPR; [5]) [%] | Emax (hGLP-1R; [2]) [%] | EC50 (hGLP-1R; [4]) [nM] | Emax (hGLP-1R; [5]) [%]
CC[C@H](C)[C@H](NC(=O)[C@H](CC(C)C)NC(=O)[C@](C)(Cc1ccc(O)cc1)NC(=O)[C@H](CCCCNC(=O)COCCOCCNC(=O)COCCOCCNC(=O)CC[C@H](NC(=O)CCCCCCCCCCCCC(=O)O)C(=O)O)NC(=O)[C@@H](NC(=O)[C@H](Cc1ccccc1)NC(=O)[C@H](CCCN)NC(=O)C(C)(C)NC(=O)[C@H](CCC(N)=O)NC(=O)[C@H](C)NC(=O)[C@H](CCC(N)=O)NC(=O)[C@H](CCCN)NC(=O)[C@H](CC(=O)O)NC(=O)[C@H](CC(C)C)NC(=O)[C@](C)(CC(C)C)NC(=O)[C@@H](NC(=O)C(C)(C)NC(=O)[C@@H](NC(=O)[C@H](CC(=O)O)NC(=O)[C@H](CO)NC(=O)[C@@H](NC(=O)[C@](C)(Cc1ccccc1F)NC(=O)[C@@H](NC(=O)CNC(=O)[C@H](CCC(=O)O)NC(=O)C(C)(C)NC(=O)[C@@H](N)Cc1ccc(O)cc1)[C@@H](C)O)[C@@H](C)O)C(C)C)[C@@H](C)CC)[C@@H](C)CC)C(=O)N[C@@H](CCCCNC(=O)COCCOCCNC(=O)COCCOCCNC(=O)CC[C@H](NC(=O)CCCCCCCCCCCCC(=O)O)C(=O)O)C(=O)NCC(=O)NCC(=O)N1CCC[C@H]1C(=O)N[C@@H](CO)C(=O)N[C@@H](CO)C(=O)NCC(=O)N[C@@H](C)C(=O)N1CCC[C@H]1C(=O)N1CCC[C@H]1C(=O)N1CCC[C@H]1C(=O)N[C@@H](CO)C(N)=O [Example 448] | 0.0314 | 105 | 0.0164 | 1.41 | > 9950 | > 9950 | 0.157 | – | – | – | –
CC[C@H](C)[C@H](NC(=O)[C@H](CC(C)C)NC(=O)[C@](C)(Cc1ccc(O)cc1)NC(=O)[C@H](CCCCNC(=O)COCCOCCNC(=O)COCCOCCNC(=O)COCCOCCNC(=O)CC[C@H](NC(=O)CCCCCCCCCCCCC(=O)O)C(=O)O)NC(=O)[C@@H](NC(=O)[C@H](Cc1ccccc1)NC(=O)[C@H](CCCN)NC(=O)C(C)(C)NC(=O)[C@H](CCC(N)=O)NC(=O)[C@H](C)NC(=O)[C@H](CCC(N)=O)NC(=O)[C@H](CCCN)NC(=O)[C@H](CC(=O)O)NC(=O)[C@H](CC(C)C)NC(=O)[C@](C)(CC(C)C)NC(=O)[C@@H](NC(=O)C(C)(C)NC(=O)[C@H](Cc1ccncc1)NC(=O)[C@H](CC(=O)O)NC(=O)[C@H](CO)NC(=O)[C@@H](NC(=O)[C@](C)(Cc1ccccc1F)NC(=O)[C@@H](NC(=O)CNC(=O)[C@H](CCC(=O)O)NC(=O)C(C)(C)NC(=O)[C@@H](N)Cc1ccc(O)cc1)[C@@H](C)O)[C@@H](C)O)[C@@H](C)CC)[C@@H](C)CC)C(=O)N[C@@H](CCCCNC(=O)COCCOCCNC(=O)COCCOCCNC(=O)COCCOCCNC(=O)CC[C@H](NC(=O)CCCCCCCCCCCCC(=O)O)C(=O)O)C(=O)NCC(=O)NCC(=O)N1CCC[C@H]1C(=O)N[C@@H](CO)C(=O)N[C@@H](CO)C(=O)NCC(=O)N[C@@H](C)C(=O)N1CCC[C@H]1C(=O)N1CCC[C@H]1C(=O)N1CCC[C@H]1C(=O)N[C@@H](CO)C(N)=O [Example 476] | 0.0351 | – | 0.00886 | 0.154 | > 9950 | > 9950 | 0.117 | 81.8 | 114 | 1.5 | –
CCCCCCCCCCCC(=O)N[C@@H](CCC(=O)NCCOCCOCC(=O)NCCOCCOCC(=O)NCCCC[C@H](NC(=O)[C@H](CCCN)NC(=O)[C@H](CC(=O)O)NC(=O)[C@H](CC(C)C)NC(=O)[C@](C)(CC(C)C)NC(=O)[C@@H](NC(=O)C(C)(C)NC(=O)[C@H](Cc1ccncc1)NC(=O)[C@H](CC(=O)O)NC(=O)[C@H](CO)NC(=O)[C@@H](NC(=O)[C@](C)(Cc1ccccc1F)NC(=O)[C@@H](NC(=O)CNC(=O)[C@H](CCC(=O)O)NC(=O)C(C)(C)NC(=O)[C@@H](N)Cc1ccc(O)cc1)[C@@H](C)O)[C@@H](C)O)[C@@H](C)CC)C(=O)N[C@@H](C)C(=O)N[C@@H](CCC(N)=O)C(=O)NC(C)(C)C(=O)N[C@@H](CCC(=O)O)C(=O)N[C@@H](Cc1ccccc1)C(=O)N[C@H](C(=O)N[C@H](CCC(=O)O)C(=O)N[C@@](C)(Cc1ccc(O)cc1)C(=O)N[C@@H](CC(C)C)C(=O)N[C@H](C(=O)N[C@@H](CCCCNC(=O)COCCOCCNC(=O)COCCOCCNC(=O)CC[C@H](NC(=O)CCCCCCCCCCC)C(=O)O)C(=O)NCC(=O)NCC(=O)N1CCC[C@H]1C(=O)N[C@@H](CO)C(=O)N[C@@H](CO)C(=O)NCC(=O)N[C@@H](C)C(=O)N1CCC[C@H]1C(=O)N1CCC[C@H]1C(=O)N1CCC[C@H]1C(=O)N[C@@H](CO)C(N)=O)[C@@H](C)CC)[C@@H](C)CC)C(=O)O [Example 334] | 0.0195 | – | 0.00987 | – | > 9950 | > 9950 | 0.131 | 89 | – | – | 105
